System: SH-SY5Y adrenal tumors
Test: In vivo therapeutic studies, orthotopic neuroblastoma xenograft
Set-up: species or system SCID mice
Details: orthotopic SH-SY5Y model; free DXR by standard or metronomic dosing
Procedure: Five-week-old female SCID mice were purchased from Harlan Laboratories (Harlan Italy-S. Pietro al Natisone, UD). Mice (6-8 mice/group) were anaesthetised and injected with the different NB cell lines (2.5×10^6 cells in 20 μl of HEPES buffer), after laparatomy, in the capsule of the left adrenal gland. […] Mice were monitored at least two times weekly for evidence of tumor development, tumor size was quantified, and evidence of tumor-associated morbidity was noted.
2.5×10^6 SH-SY5Y cells were injected orthotopically in the left adrenal gland of mice. […] At various time-points, mice were sacrificed and tumors were measured with calipers. Tumor volumes were calculated by the formula π/6 [w1× (w2)^2], where w1 represented the largest tumor diameter and w2 represented the smallest tumor diameter. The body weight and general physical status of the animals were recorded daily and the mice were terminated when tumor reached 1000-1200 mm^3. […] Weight due to tumor burden was calculated by subtracting the normal wet organ weight from each tumor-bearing organ. In some experiments, mice were monitored routinely for weight loss, and survival times were used as the main criterion for determining treatment efficacy.
The statistical significance of differential findings between experimental groups and controls was determined by Student's t-test and considered significant if two-tailed P values were <0.05. […]

## COc1cccc2c1C(=O)c1c(O)c3c(c(O)c1C2=O)C[C@@](O)(C(=O)CO)C[C@@H]3O[C@H]1C[C@H](N)[C@H](O)[C@H](C)O1 [free DXR, doxorubicin]
  therapeutic effect: lack of therapeutic effect

Source: patent US7479483B2, “Tumor-targeted drug delivery systems and uses thereof” (G. Gaslini Children's Hospital, priority 2003, dated 2009)
